From publication PMC4500896, “Frog intestinal perfusion to evaluate drug permeability: application to p-gp and cyp3a4 substrates” (Frontiers in Pharmacology, 2015)

Legend:
frog intestine [1] = conditions: in vivo
[2] = system: human intestinal permeability; parameters: method as in a (footnote not given); conditions: reported human Peff; ref a (footnote not given); cited from earlier work
Caco-2 = system: Caco-2; parameters: method as in b (footnote not given); conditions: Caco-2 cell data; ref b (footnote not given); cited from earlier work
[3] = Frog in situ single pass intestinal perfusion (SPIP), parallel-tube model; conditions: Rana tigrina (frog), pH 7.4
rat everted gut sac = rat everted gut sac model; ref c (footnote not given); cited from earlier work
frog intestine [4] = assay: Frog in situ single pass intestinal perfusion (SPIP), parallel-tube model; conditions: non-absorbable marker in outlet perfusate, frog SPIP

In the case of CCCCc1nc(Cl)c(CO)n1Cc1ccc(-c2ccccc2-c2nn[nH]n2)cc1 [Losartan], the “Change in Peff of the probe drug when co-perfused with inhibitors” value (frog intestine [1]) is given as “significant change in Peff was observed”, the “Effective permeability coefficient, Human” value [2] is given as 1.15^a 10^-4cm s^-1 and the “Effective permeability coefficient, Caco-2” value (Caco-2) is given as 0.022^b 10^-4cm s^-1. It also gave a Papp at 90 min ([3]; other: in situ single pass intestinal perfusion) of 42.7 ± 27 ×10⁻⁶ cm/s.
For Cc1ncc2n1-c1ccc(Cl)cc1C(c1ccccc1F)=NC2 [Midazolam], the “Effective permeability coefficient, Rat” value (rat everted gut sac) is listed as 2.08 ± 0.50^c 10^-4cm s^-1 and the Papp at 90 min [3] is listed as 203 ± 7 ×10⁻⁶ cm/s.
In the case of O=S1(=O)OC(c2ccc(O)cc2)(c2ccc(O)cc2)c2ccccc21 [phenol red], the “Recovery of phenol red” value (frog intestine [4]) is reported as 98.3 ± 1.0%.
